Tested on: RSV (Group A, Long Strain)
Assay: Antiviral (RSV) assay: cytopathetic effect (CPE) protection assay in HEp-2 cells, MTT readout
Format: cell-based, human respiratory syncytial virus (RSV)
Settings: human respiratory syncytial virus, HEp-2, 96 h, Table 1, 0.2 MOI RSV, 4 days incubation, protection from CPE
Procedure: HEp-2 cells and RSV (Group A, Long Strain) were obtained from the American Type Culture Collection (Manassas, Va.). A cytopathetic effect (CPE) protection assay was performed to determine the ability of a compound to protect the cells from viral infection and thus the CPE induced by viral infection. 96-well plates were first seeded with 3×10^3 HEp-2 cells per well in Dulbecco's modified Eagle's medium (DMEM) containing 10% fetal bovine serum (FBS). One day after the cells were seeded, they were preincubated with serial dilutions of compounds prepared in 100 μL assay medium (DMEM mixed with F12 medium at a 1:1 ratio, supplemented with 2% FBS and 1 mM sodium pyruvate) for 1 hour at 37° C. 100 μL of assay medium containing 0.2 multiplicity of infection (MOI) of RSV was then added to each well of cells. In addition to wells containing infected cells incubated with compounds, each plate also contained replicates of two kinds of controls: (1) Virus control contained cells infected with 0.2 MOI of RSV in assay medium, (2) Uninfected cell control contained cells incubated with assay medium only. After 4 days of incubation at 37° C., the viability of cells was assessed using MTT (Thiazolyl blue tetrazolium bromide, Sigma). A stock solution of MTT, at a concentration of 4 mg/mL in phosphate-buffered saline, was added to all wells at 25 μL per well. Plates were further incubated for 4 hours, and each well was then treated with 50 μL of a solution containing 20% sodium dodecyl sulfate (SDS) and 0.02 N HCl. After an overnight incubation, the plates were measured on a BioTek® microtiter plate reader at wavelengths of 570 nm and 650 nm. The MTT detection is based on the fact that viable (uninfected) cells can reduce the tetrazolium salts into colored formazan products, which can then be quantitated by spectrometry. […] Compounds were tested to determine both their antiviral and toxicity to determine their therapeutic window. Determination of the EC50 and TD50 of these active compounds were repeated one additional time to confirm the window.

| SMILES | EC50 |
| --- | --- |
| Cc1nc(NCc2ccccc2)nc(NC2CCCCC2)c1C [Example 5, N^2-benzyl-N^4-cyclohexyl-5,6-dimethylpyrimidine-2,4-diamine] | 240 nM |
| Cc1nc(NCc2ccccn2)nc(Nc2ccc(F)cc2)c1C [Example 50, N^4-(4-fluorophenyl)-5,6-dimethyl-N^2-(pyridin-2-ylmethyl)pyrimidine-2,4-diamine] | 100 nM |
| Cc1nc(NCc2ccccn2)nc(Nc2cccc(C(F)(F)F)c2)c1C [Example 54, 5,6-dimethyl-N^2-(pyridin-2-ylmethyl)-N^4-[3-(trifluoromethyl)phenyl]pyrimidine-2,4-diamine] | 25 nM |
| Cc1cccnc1CNc1nc(C)c(C)c(NC2CCCCC2)n1 [Example 26, N^4-cyclohexyl-5,6-dimethyl-N^2-[(3-methylpyridin-2-yl)methyl]pyrimidine-2,4-diamine] | > 5800 nM |
| Cc1nc(NCc2ccccn2)nc(NC2CCC(F)(F)C2)c1C (centres unmarked) [Example 78, N^4-(3,3-difluorocyclopentyl)-5,6-dimethyl-N^2-(pyridin-2-ylmethyl)pyrimidine-2,4-diamine] | 190 nM |
| Cc1nc(NCc2cc(Cl)ccn2)nc(NC2CCCCC2)c1C [Example 27, N^2-[(4-chloropyridin-2-yl)methyl]-N^4-cyclohexyl-5,6-dimethylpyrimidine-2,4-diamine] | 42 nM |
| Cc1nc(NCc2ccccn2)nc(NC2CCCCCC2)c1C [Example 45, N^4-cycloheptyl-5,6-dimethyl-N^2-(pyridin-2-ylmethyl)pyrimidine-2,4-diamine] | 18 nM |
| Cc1nc(NCc2ccccn2)nc(NCC2CCCC2)c1C [Example 44, N^4-(cyclopentylmethyl)-5,6-dimethyl-N^2-(pyridin-2-ylmethyl)pyrimidine-2,4-diamine] | 24000 nM |
| Cc1cccc(C)c1Nc1nc(NCc2ccccn2)nc(C)c1C [Example 68, N^4-(2,6-dimethylphenyl)-5,6-dimethyl-N^2-(pyridin-2-ylmethyl)pyrimidine-2,4-diamine] | 9 nM |
| Cc1nc(NCc2ccccn2)nc(Nc2ccc(OC(F)(F)F)cc2)c1C [Example 56, 5,6-dimethyl-N^2-(pyridin-2-ylmethyl)-N^4-[4-(trifluoromethoxy)phenyl]pyrimidine-2,4-diamine] | 400 nM |
| Cc1nc(NCc2ccccn2)nc(NC2CC3CCC2C3)c1C (centres unmarked) [Example 39, N^4-(bicyclo[2.2.1]hept-2-yl)-5,6-dimethyl-N^2-(pyridin-2-ylmethyl)pyrimidine-2,4-diamine] | 1250 nM |
| Cc1nc(N[C@@H](C)c2ccccc2)nc(NC2CCCCC2)c1C [Example 16, N^4-cyclohexyl-5,6-dimethyl-N^2-[(1S)-1-phenylethyl]pyrimidine-2,4-diamine] | > 3700 nM |
| Cc1nc(NCc2ccccn2)nc(NC2CCCCC2C)c1C (centres unmarked) [Example 40, 5,6-dimethyl-N^4-(2-methylcyclohexyl)-N^2-(pyridin-2-ylmethyl)pyrimidine-2,4-diamine] | 65 nM |
| Cc1nc(NC(C)c2ccccn2)nc(NC2CCCCC2)c1C (centres unmarked) [Example 87, N^4-cyclohexyl-5,6-dimethyl-N^2-[1-(pyridin-2-yl)ethyl]pyrimidine-2,4-diamine] | > 32000 nM |
| Cc1nc(NCc2ccccn2)nc(NC2CCCC2)c1C [Example 29, N^4-cyclopentyl-5,6-dimethyl-N^2-(pyridin-2-ylmethyl)pyrimidine-2,4-diamine] | 920 nM |
| Cc1nc(NCc2ccccn2)nc(NCC2CCCCC2)c1C [Example 92, N^4-(cyclohexylmethyl)-5,6-dimethyl-N^2-(pyridin-2-ylmethyl)pyrimidine-2,4-diamine] | 1100 nM |
| Cc1nc(NCc2ccccn2)nc(Nc2ccccc2F)c1C [Example 51, N^4-(2-fluorophenyl)-5,6-dimethyl-N^2-(pyridin-2-ylmethyl)pyrimidine-2,4-diamine] | 320 nM |
| Cc1nc(NCc2ccccn2)nc(Nc2cccnc2)c1C [Example 93, 5,6-dimethyl-N^4-(pyridin-3-yl)-N^2-(pyridin-2-ylmethyl)pyrimidine-2,4-diamine] | 930 nM |
| Cc1nc(NCc2cccnc2)nc(NC2CCCCC2)c1C [Example 6, N^4-cyclohexyl-5,6-dimethyl-N^2-(pyridin-3-ylmethyl)pyrimidine-2,4-diamine] | 240 nM |
| Cc1ccnc(CNc2nc(C)c(C)c(NC3CCC(F)(F)CC3)n2)c1 [Example 28, N^4-(4,4-difluorocyclohexyl)-5,6-dimethyl-N^2-[(4-methylpyridin-2-yl)methyl]pyrimidine-2,4-diamine] | 61 nM |

Second part, the compound after the results:

| EC50 | SMILES |
| --- | --- |
| 4300 nM | Cc1nc(NCc2ccccn2)nc(NC2CCC(O)C2)c1C (centres unmarked) [Example 34, 3-({5,6-dimethyl-2-[(pyridin-2-ylmethyl)amino]pyrimidin-4-yl}amino)cyclopentanol] |
| 30 nM | Cc1nc(NCc2ccccn2)nc(Nc2ccccc2OC(F)(F)F)c1C [Example 59, 5,6-dimethyl-N^2-(pyridin-2-ylmethyl)-N^4-[2-(trifluoromethoxy)phenyl]pyrimidine-2,4-diamine] |
| > 950 nM | Cc1nc(NCc2ccc(C(F)(F)F)cc2)nc(NC2CCCCC2)c1C [Example 12, N^4-cyclohexyl-5,6-dimethyl-N^2-[4-(trifluoromethyl)benzyl]pyrimidine-2,4-diamine] |
| 140 nM | Cc1nc(NCc2ccccn2)nc(Nc2c(F)cccc2F)c1C [Example 55, N^4-(2,6-difluorophenyl)-5,6-dimethyl-N^2-(pyridin-2-ylmethyl)pyrimidine-2,4-diamine] |
| 1380 nM | Cc1nc(NCc2ccccn2)nc(NC2CCCC(O)C2)c1C (centres unmarked) [Example 85, 3-({5,6-dimethyl-2-[(pyridin-2-ylmethyl)amino]pyrimidin-4-yl}amino)cyclohexanol] |
| > 1000 nM | Cc1nc(NCc2cccc(F)c2)nc(NC2CCCCC2)c1C [Example 13, N^4-cyclohexyl-N^2-(3-fluorobenzyl)-5,6-dimethylpyrimidine-2,4-diamine] |
| 230 nM | Cc1nc(NCc2ccccn2)nc(Nc2ccc(C(F)(F)F)cc2)c1C [Example 57, 5,6-dimethyl-N^2-(pyridin-2-ylmethyl)-N^4-[4-(trifluoromethyl)phenyl]pyrimidine-2,4-diamine] |
| 510 nM | CCc1ccnc(CNc2nc(C)c(C)c(NC3CCC(F)(F)CC3)n2)c1 [Example 90, N^4-(4,4-difluorocyclohexyl)-N^2-[(4-ethylpyridin-2-yl)methyl]-5,6-dimethylpyrimidine-2,4-diamine] |
| 15000 nM | Cc1cc(Nc2nc(NCc3ccccn3)nc(C)c2C)no1 [Example 96, 5,6-dimethyl-N^4-(5-methyl-1,2-oxazol-3-yl)-N^2-(pyridin-2-ylmethyl)pyrimidine-2,4-diamine] |
| > 6100 nM | Cc1nc(NCc2cc(C(C)(C)C)ccn2)nc(NC2CCCCC2)c1C [Example 21, N^2-[(4-tert-butylpyridin-2-yl)methyl]-N^4-cyclohexyl-5,6-dimethylpyrimidine-2,4-diamine] |
| 190 nM | Cc1nc(NCc2ccccn2)nc(NC2CCCC(F)(F)C2)c1C (centres unmarked) [Example 80, N^4-(3,3-difluorocyclohexyl)-5,6-dimethyl-N^2-(pyridin-2-ylmethyl)pyrimidine-2,4-diamine] |
| 40 nM | Cc1nc(NCc2ccccn2)nc(Nc2cccc(Cl)c2)c1C [Example 65, N^4-(3-chlorophenyl)-5,6-dimethyl-N^2-(pyridin-2-ylmethyl)pyrimidine-2,4-diamine] |
| > 9600 nM | Cc1nc(NCc2ccccn2)nc(NC2CCC(C(F)(F)F)CC2)c1C (centres unmarked) [Example 31, 5,6-dimethyl-N^2-(pyridin-2-ylmethyl)-N^4-[4-(trifluoromethyl)cyclohexyl]pyrimidine-2,4-diamine] |
| 33000 nM | Cc1nc(NCc2ccccn2)nc(NC2CCNCC2)c1C [Example 83, 5,6-dimethyl-N^4-(piperidin-4-yl)-N^2-(pyridin-2-ylmethyl)pyrimidine-2,4-diamine] |
| 24 nM | Cc1cc(F)c(F)cc1Nc1nc(NCc2ccccn2)nc(C)c1C [Example 73, N^4-(4,5-difluoro-2-methylphenyl)-5,6-dimethyl-N^2-(pyridin-2-ylmethyl)pyrimidine-2,4-diamine] |
| 180 nM | Cc1nc(NCc2ccccn2)nc(NC2CCc3ccccc32)c1C (centres unmarked) [Example 33, N^4-(2,3-dihydro-1H-inden-1-yl)-5,6-dimethyl-N^2-(pyridin-2-ylmethyl)pyrimidine-2,4-diamine] |
| 270 nM | CCC(CC)Nc1nc(NCc2ccccn2)nc(C)c1C [Example 48, 5,6-dimethyl-N^4-(pentan-3-yl)-N^2-(pyridin-2-ylmethyl)pyrimidine-2,4-diamine] |
| 190 nM | Cc1nc(NCc2ccccn2)nc(N[C@H]2CCCC[C@H]2CO)c1C (racemic) [Example 43, rac-[(1R,2S)-2-({5,6-dimethyl-2-[(pyridin-2-ylmethyl)amino]pyrimidin-4-yl}amino)cyclohexyl]methanol] |
